The results in this text go back to PMC10141386, “The Blockade of Mitogen-Activated Protein Kinase 14 Activation by Marine Natural Product Crassolide Triggers ICD in Tumor Cells and Stimulates Anti-Tumor Immunity” (Marine Drugs, 2023).

For the test, the target named is MAPK14 (p38 alpha) (Homo sapiens, UniProt Q16539). Put plainly: Z′-LYTE FRET kinase assay (SelectScreen, MAPK14 direct, Ser/Thr […] peptide). It is filed as biochemical.
MAPK14 (p38 alpha), sequence (Q16539 2-360): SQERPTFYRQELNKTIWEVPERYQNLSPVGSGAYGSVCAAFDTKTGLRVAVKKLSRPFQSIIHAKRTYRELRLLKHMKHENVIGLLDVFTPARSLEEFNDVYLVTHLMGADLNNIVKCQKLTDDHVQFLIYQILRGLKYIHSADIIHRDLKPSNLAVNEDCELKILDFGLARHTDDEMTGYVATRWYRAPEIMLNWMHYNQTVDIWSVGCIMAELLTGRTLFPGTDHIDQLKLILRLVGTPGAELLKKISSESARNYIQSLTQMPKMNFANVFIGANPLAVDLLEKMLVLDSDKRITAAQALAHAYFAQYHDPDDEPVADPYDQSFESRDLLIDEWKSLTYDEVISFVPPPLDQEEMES

As a reminder, the IC50 is the concentration at which inhibition is half-maximal. A lower IC50 goes with greater potency in that assay. In the case of `C=C1C(=O)OC2C1C(OC(C)=O)C/C(C)=C/CC(OC(C)=O)/C(C)=C/CC(OC(C)=O)C1(C)OC21` (stereo not shown) [crassolide], the half-inhibitory concentration (IC50) is about 5.15 µM.
